In patent publication EP3831940A1, “SMALL MOLECULE INHIBITORS OF CRISPR-CAS ASSOCIATED ACTIVITY” (Danmarks Tekniske Universitet, priority 2019, dated 2021):

Target: T1, spCas9:gRNA complex (Streptococcus pyogenes serotype M1, UniProt Q99ZW2)
T1 construct: purchased New England Biolabs
Test: in vitro DNA cleavage assay (agarose gel)
Type: biochemical
Details: ACM37 and pyrrolylthiazole analogues, 200µM or 500µM; Figure 4
Experimental: The in vitro DNA cleavage assay was carried out as described by (Pawluk, N et al., 2016) with the following modifications. SpyCas9 (New England Biolabs) (5nM) was incubated with candidate compound (50∼500µM) for 15 min at 37°C in Cas9 nuclease buffer (New England Biolabs). Alt-R crRNA:tracrRNA (Integrated DNA Technologies) (6nM) was added later and incubated again for 15min at 37°C. Finally, target dsDNA (1nM) was added and incubated for 10 min at 37°C for the cleavage. The reaction was stopped by adding Proteinase K. The cleaved and un-cleaved fraction of target dsDNA were visualized after separation on a 1% agarose gel.
Control assays were performed in parallel, where the candidate compound was substituted with 5µM AcrIIA2, as positive control; either 5µM GFP protein or no protein (DMSO) as negative control; and phenolic Mannich base inhibitor, ZL006 (Sigma-Aldrich). The AcrIIA2 and GFP proteins were obtained from E. coli cells transformed with the AcrIIA2- and GFP-expression plasmids (see example 1.2 and 1.3).

T1 sequence (Q99ZW2 whole entry, one chain of several): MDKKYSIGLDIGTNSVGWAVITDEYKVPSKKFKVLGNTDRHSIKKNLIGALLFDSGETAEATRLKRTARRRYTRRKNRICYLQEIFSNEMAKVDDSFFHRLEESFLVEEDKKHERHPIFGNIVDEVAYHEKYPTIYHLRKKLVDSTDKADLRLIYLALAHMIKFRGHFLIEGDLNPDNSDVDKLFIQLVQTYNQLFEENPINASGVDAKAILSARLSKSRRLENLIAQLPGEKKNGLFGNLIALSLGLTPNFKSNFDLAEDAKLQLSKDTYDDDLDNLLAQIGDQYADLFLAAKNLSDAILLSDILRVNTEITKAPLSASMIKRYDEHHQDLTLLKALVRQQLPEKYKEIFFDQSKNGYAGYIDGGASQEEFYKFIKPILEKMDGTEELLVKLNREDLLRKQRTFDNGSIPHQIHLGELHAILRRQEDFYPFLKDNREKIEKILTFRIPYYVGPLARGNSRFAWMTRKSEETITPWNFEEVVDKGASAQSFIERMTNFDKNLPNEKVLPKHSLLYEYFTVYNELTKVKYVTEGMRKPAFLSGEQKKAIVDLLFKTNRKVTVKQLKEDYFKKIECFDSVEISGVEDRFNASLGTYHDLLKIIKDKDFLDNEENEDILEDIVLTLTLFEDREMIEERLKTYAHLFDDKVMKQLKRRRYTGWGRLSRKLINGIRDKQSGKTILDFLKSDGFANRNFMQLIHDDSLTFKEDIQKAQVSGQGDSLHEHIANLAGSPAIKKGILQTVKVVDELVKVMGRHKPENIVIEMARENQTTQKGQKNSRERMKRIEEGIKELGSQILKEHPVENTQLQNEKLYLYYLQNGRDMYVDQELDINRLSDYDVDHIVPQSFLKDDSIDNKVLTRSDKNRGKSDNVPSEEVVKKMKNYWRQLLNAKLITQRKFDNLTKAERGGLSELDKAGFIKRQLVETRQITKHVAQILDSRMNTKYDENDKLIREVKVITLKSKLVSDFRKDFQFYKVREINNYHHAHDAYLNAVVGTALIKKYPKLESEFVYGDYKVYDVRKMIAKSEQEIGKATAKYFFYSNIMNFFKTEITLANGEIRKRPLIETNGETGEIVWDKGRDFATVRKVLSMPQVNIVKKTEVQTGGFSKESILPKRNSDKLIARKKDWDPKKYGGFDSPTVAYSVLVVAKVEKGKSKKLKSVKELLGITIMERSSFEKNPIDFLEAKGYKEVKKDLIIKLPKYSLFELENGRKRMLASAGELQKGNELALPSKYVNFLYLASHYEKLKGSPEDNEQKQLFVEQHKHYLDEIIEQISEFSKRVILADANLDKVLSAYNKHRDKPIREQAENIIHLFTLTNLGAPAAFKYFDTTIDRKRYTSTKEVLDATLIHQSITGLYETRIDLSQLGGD

| SMILES | inhibitors of spCas9:gRNA mediated target DNA cleavage |
| --- | --- |
| Cc1cc(NS(=O)(=O)c2cc(-c3nc(C)c(C(=O)N4CCCCC4)s3)n(C)c2C)no1 [ACM37-A19, 1,2-Dimethyl-5-(4-methyl-5-(piperidine-1-carbonyl)thiazol-2-yl)-N-(5-methylisoxazol-3-yl)-1H-pyrrole-3-sulfonamide] | most potent inhibitors |
| Cc1cc(NS(=O)(=O)c2cc(-c3nc(C)c(C(=O)N4CCC(C)CC4)s3)n(C)c2)no1 [ACM37-A13] | most potent inhibitors |
| Cc1cc(NS(=O)(=O)c2cc(-c3nc(C)c(C(=O)N4CCCCCC4)s3)n(C)c2C)no1 [ACM37-A10, 5-(5-(Azepane-1-carbonyl)-4-methylthiazol-2-yl)-1,2-dimethyl-N-(5-methylisoxazol-3-yl)-1H-pyrrole-3-sulfonamide] | most potent inhibitors |
| Cc1cc(NS(=O)(=O)c2cc(-c3nc(C)c(C(=O)N4CCC(C)CC4)s3)n(C)c2C)no1 [ACM37, 1,2-Dimethyl-5-(4-methyl-5-(4-methylpiperidine-1-carbonyl)thiazol-2-yl)-N-(5-methylisoxazol-3-yl)-1H-pyrrole-3-sulfonamide] | most potent inhibitors |
| Cc1nc(-c2cc(S(=O)(=O)Nc3ccon3)cn2C)sc1C(=O)N1CCC(C)CC1 [ACM37-A23a, N-(isoxazol-3-yl)-1-methyl-5-(4-methyl-5-(4-methylpiperidine-1-carbonyl)thiazol-2-yl)-1H-pyrrole-3-sulfonamide] | most potent inhibitors |

Same assay, conditions: Figure 5; printed order: ACM37-A17c, then ACM37-A17, ACM37-A17p, ACM37-A17a, ACM37-A17n, ACM37-A17f

| SMILES | relative potency as inhibitor of spCas9:gRNA mediated target DNA cleavage |
| --- | --- |
| CC1CCN(C(=O)c2cccc(-c3ccccc3)c2)CC1 [ACM37-A17c, [1,1'-Biphenyl]-3-yl(4-methylpiperidin-1-yl)methanone] | most potent |

Same assay, conditions: biphenyl analogues, 80µM or 200µM; Figure 5

| SMILES | inhibitors of spCas9:gRNA mediated target DNA cleavage |
| --- | --- |
| Cc1cc(NS(=O)(=O)c2ccc(-c3ccccc3)cc2)no1 [ACM37-A17f, N-(5-Methylisoxazol-3-yl)-[1,1'-biphenyl]-4-sulfonamide] | inhibitors |
| Cc1cc(NS(=O)(=O)c2cccc(-c3ccccc3)c2)no1 [ACM37-A17p, N-(5-Methylisoxazol-3-yl)-[1,1'-biphenyl]-3-sulfonamide] | inhibitors |
| O=S(=O)(Nc1ccon1)c1ccc(-c2ccccc2)cc1 [ACM37-A17n, N-(Isoxazol-3-yl)-[1,1'-biphenyl]-4-sulfonamide] | inhibitors |
| CC1CCN(C(=O)c2cccc(-c3ccc(S(=O)(=O)Nc4ccon4)cc3)c2)CC1 [ACM37-A17a, N-(Isoxazol-3-yl)-3'-(4-methylpiperidine-1-carbonyl)-[1,1'-biphenyl]-4-sulfonamide] | inhibitors |
| Cc1cc(NS(=O)(=O)c2ccc(-c3cccc(C(=O)N4CCC(C)CC4)c3)cc2)no1 [ACM37-A17, N-(5-Methylisoxazol-3-yl)-3'-(4-methylpiperidine-1-carbonyl)-[1,1'-biphenyl]-4-sulfonamide] | inhibitors |
| CC1CCN(C(=O)c2cccc(-c3ccccc3)c2)CC1 [ACM37-A17c, [1,1'-Biphenyl]-3-yl(4-methylpiperidin-1-yl)methanone] | inhibitors |

Same assay, conditions: re-screen of the 52 candidate compounds, 50∼500µM; Figure 3

| SMILES | inhibitor of cleavage of a target DNA molecule by the spCas9:gRNA complex |
| --- | --- |
| Cc1cc(NS(=O)(=O)c2cc(-c3nc(C)c(C(=O)N4CCC(C)CC4)s3)n(C)c2C)no1 [ACM37, 1,2-Dimethyl-5-(4-methyl-5-(4-methylpiperidine-1-carbonyl)thiazol-2-yl)-N-(5-methylisoxazol-3-yl)-1H-pyrrole-3-sulfonamide] | most potent and specific inhibitor |
